Patent US7939712B2, “Method to alleviate abiotic stress in plants by expression of mitochondrial-targeted purple acid phosphatase” (The Chinese University of Hong Kong, priority 2006, dated 2011)
Marks after values point to notes of the source that are not given here.

Tested on: BY-2 cells
Assay: Analysis of mitochondria integrity (Rh123 staining) under NaCl or PEG stress
Assay type: cell-based, tobacco
Conditions: wild type BY-2 + 10 mM ascorbic acid
Method: Cells were treated with 200 mM NaCl for 1 h or 2% PEG for 1 h before staining with 10 μg/ml rhodamine-123 (Rh123) (R302, Molecular Probes) for 1 h. The signal of Rh123 was excited by green HeNe laser at 543 nm. The filter set HQ590/70 was used and confocal images were collected by the Bio-Rad Radiance 2100 system. 10-25 cells were counted for each sample for statistical analysis.
Transgenic BY-2 cell lines prepared as in Example 1 were cultured to express the GmPAP3 protein and subjected to treatment with sodium chloride or polyethylene glycol (PEG, osmotic stress) as explained above and in the description of the results as shown in FIGS. 3A-3L. The results on mitochondrial integrity were compared with the effect of the presence of ascorbic acid. The results are shown in the table below which summarizes the data in FIGS. 3A-3L. The data are the results of counting 10-25 cells and the experiment repeated 3 times. The percentage was presented as the mean value of 3 experiments±SD, where ** denotes statistical difference (p<0.01) from the wild type BY-2 cells under the same treatment, based on one-way ANOVA followed by the Turkey test.
Wild type (WT) BY-2 cells (FIGS. 3A-3C) and GmPAP3 transgenic BY-2 cell lines #20 and #29 (FIGS. 3G-3I and FIGS. 3J-3L, respectively) without ascorbic acid supplements and wild type BY-2 cells with 10 mM ascorbic acid supplements (+Asc) (FIGS. 3D-3F) were pre-treated in a cell culture medium without stress (FIGS. 3A, 3D, 3G and 3J), with 200 mM NaCl for 1 hr (FIGS. 3B, 3E, 3H and 3K), or with 2% PEG for 1 h (FIGS. 3C, 3F, 3I, 3L) before staining with 10 μg/mL Rh123 for another hour. The signal of Rh123 was observed using a confocal laser scanning microscope (see materials and methods). 10-25 cells were counted for each line. Scale bar=50 μm.

## O=C1O[C@H]([C@@H](O)CO)C(O)=C1O [ascorbic acid]
200 mM NaCl 1 h, mean of 3 experiments ± SD
  % cells with intact mitochondria, NaCl: 86.20 ± 3.3** %
2% PEG 1 h, mean of 3 experiments ± SD
  % cells with intact mitochondria, PEG: 82.16 ± 3.7** %
Medium without stress
  % cells with intact mitochondria, Control: 100%
